In patent US20240425517A1, “NOVEL COMPOUND FOR DEGRADATION OF TARGET PROTEIN OR POLYPEPTIDE BY POLYUBIQUITINATION” (PRAZER THERAPEUTICS INC., priority 2021, published 2024):

Molecular target: T1, BRD4 proteins (Homo sapiens, UniProt O60885)
T1 construct: endogenous in cells; host or cells: MM.1S
Experiment: Degradation of BRD4 protein in MM.1S cell lines (Western blot densitometry)
Assay type: cell-based
Conditions: MM.1S cells, 10 μM, 24 hours
In short: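 MM.1S cells in RPMI-1640 with 10% FBS were treated with each degrader at 10 μM for 24 h. RIPA lysates were analysed by SDS-PAGE/Western blot with β-actin as reference, and BRD4 band densitometry was scored as reduction <40% (+), 40-<70% (++) or ≥70% (+++).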

| Compound | BRD4 degrading capacity (%) |
| --- | --- |
| COC(=O)c1ccc(N2CC3CN(C(=O)C[C@@H]4N=C(c5ccc(Cl)cc5)c5c(sc(C)c5C)-n5c(C)nnc54)CC3C2)cc1C#CCN (stereo partly drawn) [5-44′, methyl 2-(3-aminoprop-1-yn-1-yl)-4-(5-(2-((S)-4-(4-chlorophenyl)-2,3,9-trimethyl-6H-thieno[3,2-f][1,2,4]triazolo[4,3-a][1,4]diazepin-6-yl)acetyl)hexahydropyrrolo[3,4-c]pyrrol-2(1H)-yl)benzoate trifluoroacetic acid] | ++ (the degrading capacity was reduced by 40% to 70% (exclusive of 70)) |
| Cc1sc2c(c1C)C(c1ccc(Cl)cc1)=N[C@@H](CC(=O)NCCCC(=O)Nc1ccc(C(=O)O)c(C#CCN)c1)c1nnc(C)n1-2.Cl [5-53′, (S)-2-(3-aminoprop-1-yn-1-yl)-4-(4-(2-(4-(4-chlorophenyl)-2,3,9-trimethyl-6H-thieno[3,2-f][1,2,4]triazolo[4,3-a][1,4]diazepin-6-yl)acetamido)butanamido)benzoic acid hydrochloride] | ++ (the degrading capacity was reduced by 40% to 70% (exclusive of 70)) |
| Cc1sc2c(c1C)C(c1ccc(Cl)cc1)=N[C@@H](CC(=O)NCCCC(=O)Nc1ccc(C(N)=O)c(C#CCN)c1)c1nnc(C)n1-2.Cl [5-59′, (S)-2-(3-aminoprop-1-yn-1-yl)-4-(4-(2-(4-(4-chlorophenyl)-2,3,9-trimethyl-6H-thieno[3,2-f][1,2,4]triazolo[4,3-a][1,4]diazepin-6-yl)acetamido)butanamido)benzamide hydrochloride] | +++ (the degrading capacity was reduced by 70% or more) |
| Cc1sc2c(c1C)C(c1ccc(Cl)cc1)=N[C@@H](CC(=O)NCCCC(=O)Nc1ccc(C(=O)N(C)C)c(C#CCN)c1)c1nnc(C)n1-2.Cl [5-61′, (S)-2-(3-aminoprop-1-yn-1-yl)-4-(4-(2-(4-(4-chlorophenyl)-2,3,9-trimethyl-6H-thieno[3,2-f][1,2,4]triazolo[4,3-a][1,4]diazepin-6-yl)acetamido)butanamido)-N,N-dimethylbenzamide hydrochloride] | ++ (the degrading capacity was reduced by 40% to 70% (exclusive of 70)) |
| COc1ccc(NC(=O)CCCNC(=O)C[C@@H]2N=C(c3ccc(Cl)cc3)c3c(sc(C)c3C)-n3c(C)nnc32)cc1C#CCN [5-63′, (S)—N-(3-(3-aminoprop-1-yn-1-yl)-4-methoxyphenyl)-4-(2-(4-(4-chlorophenyl)-2,3,9-trimethyl-6H-thieno[3,2-f][1,2,4]triazolo[4,3-a][1,4]diazepin-6-yl)acetamido)butanamide trifluoroacetic acid] | ++ (the degrading capacity was reduced by 40% to 70% (exclusive of 70)) |
| Cc1ccc(NC(=O)CCCNC(=O)C[C@@H]2N=C(c3ccc(Cl)cc3)c3c(sc(C)c3C)-n3c(C)nnc32)cc1C#CCN.Cl [5-65′, (S)—N-(3-(3-aminoprop-1-yn-1-yl)-4-methylphenyl)-4-(2-(4-(4-chlorophenyl)-2,3,9-trimethyl-6H-thieno[3,2-f][1,2,4]triazolo[4,3-a][1,4]diazepin-6-yl)acetamido)butanamide hydrochloride] | + (the degrading capacity of each BRD4 degrader was reduced by less than 40%) |
| Cc1sc2c(c1C)C(c1ccc(Cl)cc1)=N[C@@H](CC(=O)NCCCC(=O)Nc1ccc(C(F)(F)F)c(C#CCN)c1)c1nnc(C)n1-2.Cl [5-75′, (S)—N-(3-(3-aminoprop-1-yn-1-yl)-4-(trifluoromethyl)phenyl)-4-(2-(4-(4-chlorophenyl)-2,3,9-trimethyl-6H-thieno[3,2-f][1,2,4]triazolo[4,3-a][1,4]diazepin-6-yl)acetamido)butanamide hydrochloride] | +++ (the degrading capacity was reduced by 70% or more) |
| Cc1sc2c(c1C)C(c1ccc(Cl)cc1)=N[C@@H](CC(=O)NCCCC(=O)Nc1ccc(F)c(C#CCN)c1)c1nnc(C)n1-2.Cl [5-77′, (S)—N-(3-(3-aminoprop-1-yn-1-yl)-4-fluorophenyl)-4-(2-(4-(4-chlorophenyl)-2,3,9-trimethyl-6H-thieno[3,2-f][1,2,4]triazolo[4,3-a][1,4]diazepin-6-yl)acetamido)butanamide hydrochloride] | + (the degrading capacity of each BRD4 degrader was reduced by less than 40%) |
| COC(=O)c1c(C)cc(NC(=O)CCCNC(=O)C[C@@H]2N=C(c3ccc(Cl)cc3)c3c(sc(C)c3C)-n3c(C)nnc32)cc1C#CCN.Cl [5-78′, methyl (S)-2-(3-aminoprop-1-yn-1-yl)-4-(4-(2-(4-(4-chlorophenyl)-2,3,9-trimethyl-6H-thieno[3,2-f][1,2,4]triazolo[4,3-a][1,4]diazepin-6-yl)acetamido)butanamido)-6-methylbenzoate hydrochloride] | + (the degrading capacity of each BRD4 degrader was reduced by less than 40%) |
| Cc1sc2c(c1C)C(c1ccc(Cl)cc1)=N[C@@H](CC(=O)NCCCC(=O)Nc1ccc(-c3cnc(C(F)(F)F)nc3)c(C#CCN)c1)c1nnc(C)n1-2.Cl [5-81′, (S)—N-(3-(3-aminoprop-1-yn-1-yl)-4-(2-(trifluoromethyl)pyrimidin-5-yl)phenyl)-4-(2-(4-(4-chlorophenyl)-2,3,9-trimethyl-6H-thieno[3,2-f][1,2,4]triazolo[4,3-a][1,4]diazepin-6-yl)acetamido)butanamide hydrochloride] | +++ (the degrading capacity was reduced by 70% or more) |
| COC(=O)c1ccc(NCC2CCN(C(=O)C[C@@H]3N=C(c4ccc(Cl)cc4)c4c(sc(C)c4C)-n4c(C)nnc43)CC2)cc1C#CCN [5-85′, methyl (S)-2-(3-aminoprop-1-yn-1-yl)-4-(((1-(2-(4-(4-chlorophenyl)-2,3,9-trimethyl-6H-thieno[3,2-f][1,2,4]triazolo[4,3-a][1,4]diazepin-6-yl)acetyl)piperidin-4-yl)methyl)amino)benzoate trifluoroacetic acid] | +++ (the degrading capacity was reduced by 70% or more) |
| COC(=O)c1ccc(NC2CCN(C(=O)C[C@@H]3N=C(c4ccc(Cl)cc4)c4c(sc(C)c4C)-n4c(C)nnc43)CC2)cc1C#CCN [5-86′, methyl (S)-2-(3-aminoprop-1-yn-1-yl)-4-((1-(2-(4-(4-chlorophenyl)-2,3,9-trimethyl-6H-thieno[3,2-f][1,2,4]triazolo[4,3-a][1,4]diazepin-6-yl)acetyl)piperidin-4-yl)amino)benzoate] | +++ (the degrading capacity was reduced by 70% or more) |
| COC(=O)c1cc(C#CCN)cc(NC(=O)CCCNC(=O)C[C@@H]2N=C(c3ccc(Cl)cc3)c3c(sc(C)c3C)-n3c(C)nnc32)c1.Cl [5-89′, methyl (S)-3-(3-aminoprop-1-yn-1-yl)-5-(4-(2-(4-(4-chlorophenyl)-2,3,9-trimethyl-6H-thieno[3,2-f][1,2,4]triazolo[4,3-a][1,4]diazepin-6-yl)acetamido)butanamido)benzoate hydrochloride] | + (the degrading capacity of each BRD4 degrader was reduced by less than 40%) |
| COC(=O)c1ccc(C#CCN)cc1NC(=O)CCCNC(=O)C[C@@H]1N=C(c2ccc(Cl)cc2)c2c(sc(C)c2C)-n2c(C)nnc21.Cl [5-90′, methyl (S)-4-(3-aminoprop-1-yn-1-yl)-2-(4-(2-(4-(4-chlorophenyl)-2,3,9-trimethyl-6H-thieno[3,2-f][1,2,4]triazolo[4,3-a][1,4]diazepin-6-yl)acetamido)butanamido)benzoate hydrochloride] | +++ (the degrading capacity was reduced by 70% or more) |
| COC(=O)c1nc(NC(=O)CCCNC(=O)C[C@@H]2N=C(c3ccc(Cl)cc3)c3c(sc(C)c3C)-n3c(C)nnc32)ccc1C#CCN.Cl [5-96′, methyl (S)-3-(3-aminoprop-1-yn-1-yl)-6-(4-(2-(4-(4-chlorophenyl)-2,3,9-trimethyl-6H-thieno[3,2-f][1,2,4]triazolo[4,3-a][1,4]diazepin-6-yl)acetamido)butanamido)picolinate hydrochloride] | +++ (the degrading capacity was reduced by 70% or more) |
| Cc1sc2c(c1C)C(c1ccc(Cl)cc1)=N[C@@H](CC(=O)NCCCCCC(=O)Nc1cccc(C#CCN)c1)c1nnc(C)n1-2.Cl [5-104′, (S)—N-(3-(3-aminoprop-1-yn-1-yl)phenyl)-6-(2-(4-(4-chlorophenyl)-2,3,9-trimethyl-6H-thieno[3,2-f][1,2,4]triazolo[4,3-a][1,4]diazepin-6-yl)acetamido)hexanamide hydrochloride] | ++ (the degrading capacity was reduced by 40% to 70% (exclusive of 70)) |
| COC(=O)c1ccc(NC(=O)CCCC(=O)OCC[C@@H]2N=C(c3ccc(Cl)cc3)c3c(sc(C)c3C)-n3c(C)nnc32)cc1C#CCN.Cl [5-106′, methyl (S)-2-(3-aminoprop-1-yn-1-yl)-4-(5-(2-(4-(4-chlorophenyl)-2,3,9-trimethyl-6H-thieno[3,2-f][1,2,4]triazolo[4,3-a][1,4]diazepin-6-yl)ethoxy)-5-oxopentanamido)benzoate hydrochloride] | + (the degrading capacity of each BRD4 degrader was reduced by less than 40%) |
| Cc1sc2c(c1C)C(c1ccc(Cl)cc1)=N[C@@H](CC(=O)NCCCCCCCC(=O)Nc1cccc(C#CCN)c1)c1nnc(C)n1-2.Cl [5-107′, (S)—N-(3-(3-aminoprop-1-yn-1-yl)phenyl)-8-(2-(4-(4-chlorophenyl)-2,3,9-trimethyl-6H-thieno[3,2-f][1,2,4]triazolo[4,3-a][1,4]diazepin-6-yl)acetamido)octanamide hydrochloride] | ++ (the degrading capacity was reduced by 40% to 70% (exclusive of 70)) |
| Cc1sc2c(c1C)C(c1ccc(Cl)cc1)=N[C@@H](CC(=O)NCCCCCCCCCCC(=O)Nc1cccc(C#CCN)c1)c1nnc(C)n1-2.Cl [5-108′, (S)—N-(3-(3-aminoprop-1-yn-1-yl)phenyl)-11-(2-(4-(4-chlorophenyl)-2,3,9-trimethyl-6H-thieno[3,2-f][1,2,4]triazolo[4,3-a][1,4]diazepin-6-yl)acetamido)undecanamide hydrochloride] | +++ (the degrading capacity was reduced by 70% or more) |
